# Measured values as given in patent US10040781B2, “Tank-binding kinase inhibitor compounds” (Gilead Sciences, Inc., priority 2014, dated 2018).
# Where a name gives a salt, the structure may show the parent alone. Read-outs that look alike come from different tables or passages of the source.
# How the values were obtained:
# IKKε = IKKε (Homo sapiens (Human), UniProt Q14164); experiment: IKKε TR-FRET enzymatic assay; format: biochemical; conditions: read-out: IKKe IC50
# hJAK2 = hJAK2 (Homo sapiens (Human), UniProt O60674); experiment: hJAK2 LANCE TR-FRET enzymatic assay; format: biochemical; conditions: read-out: JAK2 IC50
# hJAK2, sequence (O60674 whole entry): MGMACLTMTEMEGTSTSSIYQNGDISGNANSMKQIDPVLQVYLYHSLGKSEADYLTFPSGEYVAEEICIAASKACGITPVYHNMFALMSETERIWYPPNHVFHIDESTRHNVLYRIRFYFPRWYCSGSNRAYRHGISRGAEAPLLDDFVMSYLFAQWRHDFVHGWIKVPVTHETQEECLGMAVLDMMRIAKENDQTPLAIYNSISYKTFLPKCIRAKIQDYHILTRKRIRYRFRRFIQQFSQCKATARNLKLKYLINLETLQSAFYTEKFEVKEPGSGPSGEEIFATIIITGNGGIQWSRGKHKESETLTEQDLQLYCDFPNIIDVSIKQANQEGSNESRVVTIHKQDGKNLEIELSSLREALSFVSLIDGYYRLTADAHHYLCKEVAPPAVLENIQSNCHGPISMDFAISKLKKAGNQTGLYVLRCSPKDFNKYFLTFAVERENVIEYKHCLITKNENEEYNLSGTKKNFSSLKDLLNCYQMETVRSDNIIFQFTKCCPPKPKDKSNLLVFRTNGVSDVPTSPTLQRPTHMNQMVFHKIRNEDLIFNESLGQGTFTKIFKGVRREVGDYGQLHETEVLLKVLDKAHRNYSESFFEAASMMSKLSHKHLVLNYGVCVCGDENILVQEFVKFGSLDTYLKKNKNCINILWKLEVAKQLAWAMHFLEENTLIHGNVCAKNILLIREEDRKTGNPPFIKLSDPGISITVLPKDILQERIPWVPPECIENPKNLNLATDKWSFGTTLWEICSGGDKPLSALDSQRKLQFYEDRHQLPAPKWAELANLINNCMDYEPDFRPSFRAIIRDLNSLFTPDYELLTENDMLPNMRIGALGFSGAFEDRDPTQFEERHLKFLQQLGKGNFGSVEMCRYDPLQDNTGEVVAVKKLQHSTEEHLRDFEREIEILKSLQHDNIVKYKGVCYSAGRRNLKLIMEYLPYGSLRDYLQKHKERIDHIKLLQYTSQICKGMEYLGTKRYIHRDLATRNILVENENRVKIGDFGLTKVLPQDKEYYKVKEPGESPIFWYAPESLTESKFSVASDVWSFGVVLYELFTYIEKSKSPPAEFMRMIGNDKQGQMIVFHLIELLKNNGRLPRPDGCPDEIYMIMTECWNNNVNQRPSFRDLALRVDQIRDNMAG
# TBK1 = TBK1 (Homo sapiens (Human), UniProt Q9UHD2); experiment: TBK1 TR-FRET enzymatic assay;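 also: phosphorylation of a biotinylated Ser/Thr peptide by purified full-length recombinant TBK1, read by TR-FRET after 240 min at 25 °C, IC50 is the geometric mean of at least four runs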
# TBK1, sequence (Q9UHD2 whole entry): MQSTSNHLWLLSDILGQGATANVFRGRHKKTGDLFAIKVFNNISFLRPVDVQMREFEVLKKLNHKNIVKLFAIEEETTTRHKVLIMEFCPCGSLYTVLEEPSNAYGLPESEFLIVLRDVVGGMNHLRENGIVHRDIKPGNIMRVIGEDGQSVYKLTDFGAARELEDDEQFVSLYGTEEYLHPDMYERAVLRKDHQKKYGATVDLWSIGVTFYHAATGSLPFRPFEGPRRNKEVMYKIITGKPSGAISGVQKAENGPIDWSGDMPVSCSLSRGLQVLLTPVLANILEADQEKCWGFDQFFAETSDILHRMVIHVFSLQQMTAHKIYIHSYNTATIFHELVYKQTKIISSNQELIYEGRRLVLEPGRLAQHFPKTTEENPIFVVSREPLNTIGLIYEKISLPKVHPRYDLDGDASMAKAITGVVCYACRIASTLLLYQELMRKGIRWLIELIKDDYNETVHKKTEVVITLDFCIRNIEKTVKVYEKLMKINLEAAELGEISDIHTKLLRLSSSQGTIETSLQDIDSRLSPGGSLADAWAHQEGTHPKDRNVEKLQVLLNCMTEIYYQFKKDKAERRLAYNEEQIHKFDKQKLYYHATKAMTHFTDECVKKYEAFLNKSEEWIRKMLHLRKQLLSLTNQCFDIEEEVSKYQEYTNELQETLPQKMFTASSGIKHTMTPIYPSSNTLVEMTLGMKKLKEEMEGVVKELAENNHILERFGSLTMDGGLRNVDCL
# [1] = TR-FRET, 2×Km ATP, geometric mean of minimum four determinations
# IKKε, sequence (Q14164 whole entry): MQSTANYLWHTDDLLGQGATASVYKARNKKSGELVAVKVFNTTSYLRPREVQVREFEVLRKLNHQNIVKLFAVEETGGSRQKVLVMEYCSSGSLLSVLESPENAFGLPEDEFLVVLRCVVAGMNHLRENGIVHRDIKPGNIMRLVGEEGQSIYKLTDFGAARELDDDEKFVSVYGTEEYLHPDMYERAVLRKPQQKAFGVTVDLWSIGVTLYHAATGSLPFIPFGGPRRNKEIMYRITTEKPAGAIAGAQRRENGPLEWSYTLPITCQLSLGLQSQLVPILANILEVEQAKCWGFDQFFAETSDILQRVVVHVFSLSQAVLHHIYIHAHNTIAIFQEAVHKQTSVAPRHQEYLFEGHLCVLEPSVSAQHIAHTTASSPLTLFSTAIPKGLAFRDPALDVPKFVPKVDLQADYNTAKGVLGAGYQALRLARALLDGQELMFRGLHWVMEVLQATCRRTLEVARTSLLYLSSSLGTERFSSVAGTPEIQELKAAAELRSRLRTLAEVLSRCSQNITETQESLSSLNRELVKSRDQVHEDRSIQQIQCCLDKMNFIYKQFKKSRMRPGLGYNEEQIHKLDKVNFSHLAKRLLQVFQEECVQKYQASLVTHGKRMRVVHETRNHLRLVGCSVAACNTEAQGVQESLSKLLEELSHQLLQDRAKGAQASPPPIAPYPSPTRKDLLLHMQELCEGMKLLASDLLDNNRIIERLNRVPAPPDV
IC50 (IKKε; [1]) [nM],IC50 (hJAK2) [nM],IC50 (TBK1) [nM],IC50 (IKKε) [nM],SMILES
8,15,6,–,"N#Cc1cc(-c2ncnc(Nc3ccc(N4CCN(C5COC5)CC4)cc3)n2)ccc1O[C@H]1CCN(C(=O)CO)C[C@@H]1C(F)(F)F (relative stereo) [Example 438, Trans-2-((1-(2-hydroxyacetyl)-3-(trifluoromethyl)piperidin-4-yl)oxy)-5-(4-((4-(4-(oxetan-3-yl)piperazin-1-yl)phenyl)amino)-1,3,5-triazin-2-yl)benzonitrile]"
12,21,9,–,"N#Cc1cc(-c2ncnc(Nc3ccc(N4CCN(C5COC5)CC4)cc3)n2)ccc1O[C@H]1CCN(C(=O)CO)C[C@H]1C(F)(F)F (relative stereo) [Example 439, cis-2-((1-(2-hydroxyacetyl)-3-(trifluoromethyl)piperidin-4-yl)oxy)-5-(4-((4-(4-(oxetan-3-yl)piperazin-1-yl)phenyl)amino)-1,3,5-triazin-2-yl)benzonitrile]"
–,330,49,229,"N#Cc1cc(-c2ncnc(Nc3ccc(N4CCN(C5COC5)CC4)cc3)n2)ccc1O[C@H]1CCNCC1(F)F (single isomer, unassigned) [Example 149]"
–,270,2,14,"N#Cc1cc(-c2ncnc(Nc3ccc(N4CCN(C5COC5)CC4)cc3)n2)ccc1O[C@@H]1CCNCC1(F)F (single isomer, unassigned) [Example 150]"
–,196,16,23,"C[C@H](O)C(=O)N1CC[C@@H](Oc2ccc(-c3ncnc(Nc4ccc(N5CCN(C6COC6)CC5)cc4)n3)cc2C#N)C(F)(F)C1 (single isomer, unassigned) [Example 156]"
–,171,1,3,"C[C@@H](O)C(=O)N1CC[C@H](Oc2ccc(-c3ncnc(Nc4ccc(N5CCN(C6COC6)CC5)cc4)n3)cc2C#N)C(F)(F)C1 (single isomer, unassigned) [Example 158]"
–,207,79,209,"C[C@@H](O)C(=O)N1CC[C@@H](Oc2ccc(-c3ncnc(Nc4ccc(N5CCN(C6COC6)CC5)cc4)n3)cc2C#N)C(F)(F)C1 (single isomer, unassigned) [Example 159]"
–,49,2,1,"CC1(C)CN(C(=O)CO)C[C@H](F)[C@@H]1Oc1ccc(-c2ncnc(Nc3ccc(N4CCN(C5COC5)CC4)cc3)n2)cc1C#N (single isomer, unassigned) [Example 178]"
–,234,8,13,"CC1(C)CN(C(=O)CO)C[C@@H](F)[C@H]1Oc1ccc(-c2ncnc(Nc3ccc(N4CCN(C5COC5)CC4)cc3)n2)cc1C#N (single isomer, unassigned) [Example 179]"
–,90,2,10,"N#Cc1cc(-c2ncnc(Nc3ccc(N4CCN(C5COC5)CC4)cc3)n2)ccc1O[C@H]1CN(C(=O)CO)CC1(F)F (single isomer, unassigned) [Example 195]"
–,118,114,391,"N#Cc1cc(-c2ncnc(Nc3ccc(N4CCN(C5COC5)CC4)cc3)n2)ccc1O[C@@H]1CN(C(=O)CO)CC1(F)F (single isomer, unassigned) [Example 196]"
42,865,20,–,"CC(N)C(=O)N1CC[C@H](Oc2ccc(-c3ncnc(Nc4ccc(N5CCN(C6COC6)CC5)cc4)n3)cc2C#N)[C@H](F)C1 (stereo in doubt) [Example 434, 2-(((3R,4S)-1-((R)-2-aminopropanoyl)-3-fluoropiperidin-4-yl)oxy)-5-(4-((4-(4-(oxetan-3-yl)piperazin-1-yl)phenyl)amino)-1,3,5-triazin-2-yl)benzonitrile]"
–,360,2,6,"N#Cc1cc(-c2ncnc(Nc3ccc(N4CCS(=O)(=O)CC4)cc3)n2)ccc1OC1CCOCC1 [Example 1, 5-(4-((4-(1,1-dioxidothiomorpholino)phenyl)amino)-1,3,5-triazin-2-yl)-2-((tetrahydro-2H-pyran-4-yl)oxy)benzonitrile]"
–,724,20,99,"CC(=O)N1CC[C@@H](Oc2ccc(-c3ncnc(Nc4ccc(N5CCN(C6COC6)CC5)cc4)n3)cc2C#N)C1 [Example 3, (R)-2-((1-acetylpyrrolidin-3-yl)oxy)-5-(4-((4-(4-(oxetan-3-yl)piperazin-1-yl)phenyl)amino)-1,3,5-triazin-2-yl)benzonitrile]"
–,269,35,101,"N#Cc1cc(-c2ncnc(Nc3ccc(N4CCN(C5COC5)CC4)cc3)n2)ccc1OC1COC1 [Example 5, 5-(4-((4-(4-(oxetan-3-yl)piperazin-1-yl)phenyl)amino)-1,3,5-triazin-2-yl)-2-(oxetan-3-yloxy)benzonitrile]"
–,178,7,20,"CC1(COc2ccc(-c3ncnc(Nc4ccc(N5CCN(C6COC6)CC5)cc4)n3)cc2C#N)COC1 [Example 6, 2-((3-methyloxetan-3-yl)methoxy)-5-(4-((4-(4-(oxetan-3-yl)piperazin-1-yl)phenyl)amino)-1,3,5-triazin-2-yl)benzonitrile]"
–,225,1,3,"COc1cc(Nc2ncnc(-c3ccc(OC4CCOCC4)c(C#N)c3)n2)ccc1N1CCN(CC(F)F)CC1 [Example 7, 5-(4-((4-(4-(2,2-difluoroethyl)piperazin-1-yl)-3-methoxyphenyl)amino)-1,3,5-triazin-2-yl)-2-((tetrahydro-2H-pyran-4-yl)oxy)benzonitrile]"
–,278,7,19,"Cn1cc(Nc2ncnc(-c3ccc(N4CCCC4)c(C#N)c3)n2)cn1 [Example 8, 5-(4-((1-methyl-1H-pyrazol-4-yl)amino)-1,3,5-triazin-2-yl)-2-(pyrrolidin-1-yl)benzonitrile]"
–,363,3,7,"Cn1cc(Nc2ncnc(-c3ccc(OC4CCOCC4)c(C#N)c3)n2)cn1 [Example 9, 5-(4-((1-methyl-1H-pyrazol-4-yl)amino)-1,3,5-triazin-2-yl)-2-((tetrahydro-2H-pyran-4-yl)oxy)benzonitrile]"
–,336,5,15,"N#Cc1cc(-c2ncnc(Nc3ccc(N4CCN(C5COC5)CC4)cc3)n2)ccc1N1CCCC1 [Example 10, 5-(4-((4-(4-(oxetan-3-yl)piperazin-1-yl)phenyl)amino)-1,3,5-triazin-2-yl)-2-(pyrrolidin-1-yl)benzonitrile]"
–,224,1,4,"CC(=O)N1CCN(c2ccc(Nc3ncnc(-c4ccc(OC5CCOCC5)c(C#N)c4)n3)cc2)CC1 [Example 11, 5-(4-((4-(4-acetylpiperazin-1-yl)phenyl)amino)-1,3,5-triazin-2-yl)-2-((tetrahydro-2H-pyran-4-yl)oxy)benzonitrile]"
–,> 1000,5,14,"C[C@H](O)C(=O)N1CCC(Oc2ccc(-c3ncnc(Nc4ccc(N5CCN(C6COC6)CC5)cc4)n3)cc2C#N)CC1 [Example 15, (S)-2-((1-(2-hydroxypropanoyl)piperidin-4-yl)oxy)-5-(4-((4-(4-(oxetan-3-yl)piperazin-1-yl)phenyl)amino)-1,3,5-triazin-2-yl)benzonitrile]"
–,603,1,4,"N#Cc1cc(-c2ncnc(Nc3ccc(N4CCN(C5COC5)CC4)cc3)n2)ccc1OC1CCN(C(=O)CO)CC1 [Example 16, 2-((1-(2-hydroxyacetyl)piperidin-4-yl)oxy)-5-(4-((4-(4-(oxetan-3-yl)piperazin-1-yl)phenyl)amino)-1,3,5-triazin-2-yl)benzonitrile]"
–,540,9,54,"N#Cc1cc(-c2ncnc(Nc3ccc(N4CCN(C5COC5)CC4)cc3)n2)ccc1OC1CCS(=O)(=O)CC1 [Example 17, 2-((1,1-dioxidotetrahydro-2H-thiopyran-4-yl)oxy)-5-(4-((4-(4-(oxetan-3-yl)piperazin-1-yl)phenyl)amino)-1,3,5-triazin-2-yl)benzonitrile]"
–,> 1000,1,4,"N#Cc1cc(-c2ncnc(Nc3ccc(N4CCN(C5COC5)CC4)cc3)n2)ccc1OC1CCSCC1 [Example 19, 5-(4-((4-(4-(oxetan-3-yl)piperazin-1-yl)phenyl)amino)-1,3,5-triazin-2-yl)-2-((tetrahydro-2H-thiopyran-4-yl)oxy)benzonitrile]"
–,> 1000,4,6,"COc1cc(Nc2ncnc(-c3ccc(OC4CCOCC4)c(C#N)c3)n2)ccc1C(N)=O [Example 21, 4-((4-(3-cyano-4-((tetrahydro-2H-pyran-4-yl)oxy)phenyl)-1,3,5-triazin-2-yl)amino)-2-methoxybenzamide]"

SMILES,IC50 (IKKε; [1]) [nM],IC50 (hJAK2) [nM],IC50 (TBK1) [nM],IC50 (IKKε) [nM]
"COc1cc(Nc2ncnc(-c3ccc(OC4CCOCC4)c(C#N)c3)n2)ccc1N1CCN(C2COC2)CC1 [Example 13, 5-(4-((3-methoxy-4-(4-(oxetan-3-yl)piperazin-1-yl)phenyl)amino)-1,3,5-triazin-2-yl)-2-((tetrahydro-2H-pyran-4-yl)oxy)benzonitrile]",–,127,1,2
"N#Cc1cc(-c2ncnc(Nc3ccc(N4CCNCC4)cc3)n2)ccc1OC1CCOCC1 [Example 18, 5-(4-((4-(piperazin-1-yl)phenyl)amino)-1,3,5-triazin-2-yl)-2-((tetrahydro-2H-pyran-4-yl)oxy)benzonitrile, trifluoroacetic acid salt]",–,271,1,1
"COc1cc(Nc2ncnc(-c3ccc(OC4CCOCC4)c(C#N)c3)n2)ccc1C1CCN(C2COC2)CC1 [Example 20, 5-(4-((3-methoxy-4-(1-(oxetan-3-yl)piperidin-4-yl)phenyl)amino)-1,3,5-triazin-2-yl)-2-((tetrahydro-2H-pyran-4-yl)oxy)benzonitrile]",–,> 1000,2,2
